Experimental data published in EP2389922A1, “Cyclohexyl carbamate compounds as anti-ageing actives” (Symrise AG, priority 2010, dated 2011).

Experiments:
SIRT1 = SIRT1 assay: stimulation of SIRT1 expression in NHDF cells (immunofluorescence); type: cell-based, human; settings: concentration 30 µM; NHDF cells treated 48 h; mean values of at least 2 independent tests
Experimental: NHDF cells (normal human dermal fibroblasts) were seeded in 96-well plates. After 24 h cultivation at 37 °C and 5% CO2 in DMEM (Dulbecco's Modified Eagle Medium), cells were treated with test substances for another 48 h. After washing the cells with PBS (phosphate buffered saline), the cells were fixed with paraformaldehyde and permeabilized. Then they were washed again and blocked with BSA (bovine serum albumen), followed by incubation with […]. After extensive washing, the fluorescence is measured in a microplate reader and fluorescence images were recorded on a fluorescence microscope with an attached […]. The stimulation of SIRT1 expression was calculated by: StimulationofSIRT1expression[%] = ((RFUtestesubstance−RFUbackground)/(RFUcontrol−RFUbackground)×100)−100 [formula] RFU test substance = relative fluorescent units of the wells with test substance, stained completely RFU control = relative fluorescent units of the wells without test substance, stained completely RFU background = relative fluorescent units of the wells without test substance, stained only with secondary antibody. Table Example 2: Stimulation of SIRT1 expression by the individual substances (mean values of at least 2 independent tests)

proteasome = target: T1, proteasome (Homo sapiens, UniProt P28074); test: Measurement of proteasome activity using cell lysates (HaCaT cells, MCA liberation); type: biochemical; settings: HaCaT cell lysate, relative to DMSO control (0 mM = 100 %), mean values of 3 independent tests
T1 construct: endogenous in cells; host or cells: HaCaT human keratinocytes (cell lysate)
Experimental: To determine proteasome activity in cell lysate, human keratinocyte cell lines (HaCaT cells) were seeded out in Petri-dishes (area: 22.1 cm^2) and harvested when they reached confluence. Isolation of the pure cell lysate included cell washing, incubation and homogenization in lysis buffer (250mM sucrose, 25mM HEPES (4-(2-hydroxyethyl)-1-piperazineethanesulfonic acid), 10mM MgCl2*6H2O, 1.3mM EDTA) and final cell lysis with liquid nitrogen. Determination of proteasome activity is based on the liberation of MCA and the corresponding fluorescence like described above in example 3.1. Proteasome activity was calculated relative to DMSO control (0 mM). Table Example 3.2: Measurement of proteasome activity of BIO1272 using cellular extracts (mean values of 3 independent tests)

isolated 20S proteasome = isolated 20S proteasome (Homo sapiens, UniProt P28074); test: Measurement of proteasome activity using isolated proteasome (chymotrypsin-like activity, MCA liberation); type: biochemical; settings: mean values of 3 independent tests
Source text: The method used herein to investigate the proteasome stimulating activity of a substance is based on the measurement of the 20S proteasome core activity. To detect this activity, the isolated 20S proteasome reacts with an oligopeptide, which is bound to a fluorochrome. With its chymotrypsin-like proteolytic activity, the proteasome degrades the oligopeptide and liberates the fluorochrome. For this assay 4-methyl-coumaryl-amide (MCA) was used as fluorochrome. Liberation of MCA correlates linearly with the proteasome activity. MCA wass detected using an excitation of 360 nm and an emission of 460 nm.
For interpretation, the measured proteasome activities / intensities of fluorescence were compared with pure MCA standards at distinct concentrations.
Two different controls were used for each assay. One "ordinary" control (C) which consisted of isolated proteasome alone, and a DMSO-control (DC). DC was necessary because all substances were diluted in DMSO. Proteasome activity was calculated relative to DMSO control (0 mM). Table Example 3.1: Measurement of proteasome activity of BIO1272 using isolated proteasome (mean values of 3 independent tests)

yeast = settings: cited from earlier work
fish = settings: cited from earlier work

CCCCNC(=O)O[C@@H]1C[C@H](C)CC[C@H]1C(C)C [BIO1267, n-Butyl-carbamic acid (1R,2S,5R)-2-isopropyl-5-methyl-cyclohexyl ester]
Stimulation of SIRT1 expression (SIRT1): 29%

CCCCCCNC(=O)O[C@@H]1C[C@H](C)CC[C@H]1C(C)C [BIO1271, Hexyl-carbamic acid (1R,2S,5R)-2-isopropyl-5-methyl-cyclohexyl ester]
Stimulation of SIRT1 expression (SIRT1): 66%

CC(C)NC(=O)O[C@@H]1C[C@H](C)CC[C@H]1C(C)C [BIO1272, Isopropyl-carbamic acid (1R,2S,5R)-2-isopropyl-5-methyl-cyclohexyl ester]
Relative proteasome activity [%] (proteasome; 5mM BIO1272): 105% | Relative proteasome activity [%] (proteasome; 10mM BIO1272): 120% | Relative proteasome activity [%] (proteasome; 20mM BIO1272): 140% | Relative proteasome activity [%] (isolated 20S proteasome; 5mM BIO1272, relative to DMSO control (0 mM = 100 %)): 125% | Relative proteasome activity [%] (isolated 20S proteasome; 10mM BIO1272, relative to DMSO control (0 mM = 100 %)): 210% | Relative proteasome activity [%] (isolated 20S proteasome; 20mM BIO1272, relative to DMSO control (0 mM = 100 %)): 250%

CC(C)[C@@H]1CC[C@@H](C)C[C@H]1OC(=O)Nc1ccccc1 [BIO1580, Phenyl-carbamic acid (1R,2S,5R)-2-isopropyl-5-methyl-cyclohexyl ester]
Stimulation of SIRT1 expression (SIRT1): 117%

CCCCNC(=O)OC1C(C)CCC(C)C1C (stereo not shown) [BIO1617, n-Butyl-carbamic acid 2,3,6-trimethyl-cyclohexyl ester]
Stimulation of SIRT1 expression (SIRT1): 24%

CCc1ccc(NC(=O)OC2CC(C)CC(C)C2)cc1 (stereo not shown) [BIO1823, (4-Ethyl-phenyl)-carbamic acid 3,5-dimethyl-cyclohexyl ester]
Stimulation of SIRT1 expression (SIRT1): 66%

CCCCNC(=O)OC1CCCCC1C(C)C (stereo not shown) [BIO1841, n-Butyl-carbamic acid 2-isopropyl-cyclohexyl ester]
Stimulation of SIRT1 expression (SIRT1): 14%

CCC(C)NC(=O)OC1CCCC(C)C1C (stereo not shown) [BIO1845, sec-Butyl-carbamic acid 2,3-dimethyl-cyclohexyl ester]
Stimulation of SIRT1 expression (SIRT1): 52%

CCCCNC(=O)O[C@H]1C[C@@H](C)CC[C@@H]1C(C)C [BIO1860, Butyl-carbamic acid (1S,2R,5S)-2-isopropyl-5-methyl-cyclohexyl ester]
Stimulation of SIRT1 expression (SIRT1): 47%

Oc1ccc(C=Cc2cc(O)cc(O)c2)cc1 [Resveratrol]
extending lifespan (yeast): 70% | extending lifespan (fish): 60%
